Source: PubChem BioAssay AID2060599 (Molecular Pharmacology Branch, DTP, NCI, 2025)
pIC50: −log10 of the molar value.

Tested on: 817829-284-R-J1-PDC complex spheroids, viability
Experiment: Anticancer human tumor 817829-284-R-J1-PDC patient-derived colon adenocarcinoma cell line growth inhibition [CLK]
Conditions: for pIC50: curve of first compound; for viability, T/C: stronger effect = lower value
Method in brief: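 Patient-derived tumor cells grown as complex spheroids with HUVEC endothelial cells and mesenchymal stem cells, treated with drug combinations. Concentrations descend in half-log steps from near clinical Cmax, or from 10 microM if Cmax unknown.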

[1] = second compound 0.0316 µM, first compound 0.0316 µM
[2] = second compound 0.0316 µM, first compound 0.1 µM
[3] = second compound 0.0316 µM, first compound 0.316 µM
[4] = second compound 0.0316 µM, first compound 1 µM
[5] = second compound 0.0316 µM, first compound 3.16 µM
[6] = second compound 0.0316 µM, first compound 10 µM
[7] = second compound 0.1 µM, first compound 0.0316 µM
[8] = second compound 0.1 µM, first compound 0.1 µM
[9] = second compound 0.1 µM, first compound 0.316 µM
[10] = second compound 0.1 µM, first compound 1 µM
[11] = second compound 0.1 µM, first compound 3.16 µM
[12] = second compound 0.1 µM, first compound 10 µM
[13] = second compound 0.316 µM, first compound 0.0316 µM
[14] = second compound 0.316 µM, first compound 0.1 µM
[15] = second compound 0.316 µM, first compound 0.316 µM
[16] = second compound 0.316 µM, first compound 1 µM
[17] = second compound 0.316 µM, first compound 3.16 µM
[18] = second compound 0.316 µM, first compound 10 µM
[19] = second compound 1 µM, first compound 0.0316 µM
[20] = second compound 1 µM, first compound 0.1 µM
[21] = second compound 1 µM, first compound 0.316 µM
[22] = second compound 1 µM, first compound 1 µM
[23] = second compound 1 µM, first compound 3.16 µM
[24] = second compound 1 µM, first compound 10 µM
[25] = second compound 3.16 µM, first compound 0.0316 µM
[26] = second compound 3.16 µM, first compound 0.1 µM
[27] = second compound 3.16 µM, first compound 0.316 µM
[28] = second compound 3.16 µM, first compound 1 µM
[29] = second compound 3.16 µM, first compound 3.16 µM
[30] = second compound 3.16 µM, first compound 10 µM
[31] = second compound 10 µM, first compound 0.0316 µM
[32] = second compound 10 µM, first compound 0.1 µM
[33] = second compound 10 µM, first compound 0.316 µM
[34] = second compound 10 µM, first compound 1 µM
[35] = second compound 10 µM, first compound 3.16 µM
[36] = second compound 10 µM, first compound 10 µM
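Further: spheroids exposed to the agents for seven days before readout.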

SMILES: CC1(C)CCC(CN2CCN(c3ccc(C(=O)NS(=O)(=O)c4ccc(NCC5CCOCC5)c([N+](=O)[O-])c4)c(Oc4cnc5[nH]ccc5c4)c3)CC2)=C(c2ccc(Cl)cc2)C1 + CN1CCN(c2cc(C(=O)Nc3cc4cc(-c5cnn(C)c5)ccc4cn3)ccn2)CC1
- pIC50 (second compound 0.0316 µM): 5.39
- pIC50 (second compound 0.1 µM): > 7.50
- pIC50 (second compound 0.316 µM): > 7.50
- pIC50 (second compound 1 µM): > 7.50
- pIC50 (second compound 3.16 µM): > 7.50
- pIC50 (second compound 10 µM): > 7.50
- viability, T/C [1]: 92.8%
- viability, T/C [2]: 64.9%
- viability, T/C [3]: 46.8%
- viability, T/C [4]: 80.8%
- viability, T/C [5]: 63.2%
- viability, T/C [6]: 1.02%
- viability, T/C [7]: 18%
- viability, T/C [8]: 19.6%
- viability, T/C [9]: 16.1%
- viability, T/C [10]: 18.4%
- viability, T/C [11]: 20%
- viability, T/C [12]: 0.96%
- viability, T/C [13]: 1.84%
- viability, T/C [14]: 1.97%
- viability, T/C [15]: 1.65%
- viability, T/C [16]: 2.48%
- viability, T/C [17]: 1.41%
- viability, T/C [18]: 0.06%
- viability, T/C [19]: 0.11%
- viability, T/C [20]: 0.09%
- viability, T/C [21]: 0.08%
- viability, T/C [22]: 0.09%
- viability, T/C [23]: 0.09%
- viability, T/C [24]: 0.06%
- viability, T/C [25]: 0.12%
- viability, T/C [26]: 0.12%
- viability, T/C [27]: 0.12%
- viability, T/C [28]: 0.11%
- viability, T/C [29]: 0.13%
- viability, T/C [30]: 0.07%
- viability, T/C [31]: 0.06%
- viability, T/C [32]: 0.07%
- viability, T/C [33]: 0.09%
- viability, T/C [34]: 0.09%
- viability, T/C [35]: 0.17%
- viability, T/C [36]: 0.1%

SMILES: CC1COCCN1c1cc(C2(S(C)(=N)=O)CC2)nc(-c2ccnc3[nH]ccc23)n1 (centres undefined) + CN1CCN(c2cc(C(=O)Nc3cc4cc(-c5cnn(C)c5)ccc4cn3)ccn2)CC1
- pIC50 (second compound 0.0316 µM): 7.07
- pIC50 (second compound 0.1 µM): > 7.50
- pIC50 (second compound 0.316 µM): > 7.50
- pIC50 (second compound 1 µM): > 7.50
- pIC50 (second compound 3.16 µM): > 7.50
- pIC50 (second compound 10 µM): > 7.50
- viability, T/C [1]: 57.2%
- viability, T/C [2]: 48.3%
- viability, T/C [3]: 34.6%
- viability, T/C [4]: 20.3%
- viability, T/C [5]: 6.12%
- viability, T/C [6]: 3.77%
- viability, T/C [7]: 14.8%
- viability, T/C [8]: 15.1%
- viability, T/C [9]: 11.9%
- viability, T/C [10]: 8.16%
- viability, T/C [11]: 4.67%
- viability, T/C [12]: 3.28%
- viability, T/C [13]: 1.94%
- viability, T/C [14]: 2.26%
- viability, T/C [15]: 1.9%
- viability, T/C [16]: 2.08%
- viability, T/C [17]: 1.38%
- viability, T/C [18]: 0.6%
- viability, T/C [19]: 0.08%
- viability, T/C [20]: 0.15%
- viability, T/C [21]: 0.11%
- viability, T/C [22]: 0.08%
- viability, T/C [23]: 0.07%
- viability, T/C [24]: 0.08%
- viability, T/C [25]: 0.53%
- viability, T/C [26]: 0.17%
- viability, T/C [27]: 0.15%
- viability, T/C [28]: 0.14%
- viability, T/C [29]: 0.14%
- viability, T/C [30]: 0.1%
- viability, T/C [31]: 0.09%
- viability, T/C [32]: 0.12%
- viability, T/C [33]: 0.13%
- viability, T/C [34]: 0.13%
- viability, T/C [35]: 0.15%
- viability, T/C [36]: 0.14%
